Data on 18 compounds can be found in US10428017B2, “Modulators of the cystic fibrosis transmembrane conductance regulator protein and methods of use” (AbbVie S.à.r.l., priority 2017, dated 2019).

For the assay, the target named is T1, F508delCFTR (Homo sapiens, UniProt P13569, DEL508-508).
T1 construct: expressed in transfected cells; host or cells: CFBE4lo-F508delCFTR-HRP cells (human lung derived epithelial cell line, doxycycline-inducible)
Briefly: Cell Surface Expression-Horse Radish Peroxidase (CSE-HRP) Assay. In kind it is cell-based. Particulars: for EC50: CFBE4lo-F508delCFTR-HRP cells, 18-24 hours at 33° C.; for Maximum % activity (with co-corrector): with co-corrector 2 μM. On the procedure: Cell Surface Expression-Horse Radish Peroxidase (CSE-HRP) Assay
A cellular assay for measuring the F508delCFTR cell surface expression after correction with test compounds either without or with a co-corrector (2 μM of 3-[(2R,4R)-4-({[1-(2,2-difluoro-1,3-benzodioxol-5-yl)cyclopropyl]carbonyl}amino)-7-methoxy-3,4-dihydro-2H-chromen-2-yl]benzoic acid), was developed in human lung derived epithelial cell line (CFBE4lo−) (Veit G et al, (2012) Mol Biol Cell. 23(21): 4188-4202). The development was achieved by expressing the F508delCFTR mutation along with a horseradish peroxidase (HRP) in the fourth exofacial loop, and then measuring the HRP activity using luminescence readout from these cells, CFBE4lo-F508delCFTR-HRP, that were incubated overnight with the test corrector compounds, either without or with the co-corrector. For this primary assay, the CFBE4lo-F508delCFTR-HRP cells were plated in 384-well plates (Greiner Bio-one; Cat 781080) at 4,000 cells/well along with 0.5 μg/mL doxycycline to induce the F508delCFTR-HRP expression and further incubated at 37° C., 5% CO2 for 72 hours. The test compounds were then added either without or with a co-corrector at the required concentrations and further incubated for 18-24 hours at 33° C. The highest concentration tested was 20 μM with an 8-point concentration response curve using a 3-fold dilution in both the test compound without or with the co-corrector. Three replicate plates were run to determine one EC50. All plates contained negative controls (dimethyl sulfoxide, DMSO) and positive control (2 μM of 3-[(2R,4R)-4-({[1-(2,2-difluoro-1,3-benzodioxol-5-yl)cyclopropyl]carbonyl}amino)-7-methoxy-3,4-dihydro-2H-chromen-2-yl]benzoic acid) as well as on-plate concentration response of the positive control. Post incubation, the plates were washed 5× times with Dulbecco's phosphate buffered saline (DPBS), followed by the addition of the HRP substrate, luminol (50 μL), and measuring the HRP activity using luminescence readout on EnVision® Multilabel Plate Reader (Perkin Elmer; product number 2104-0010). The raw counts from the experiment were analyzed using Accelrys® Assay Explorer v3.3.
Z′ greater than 0.5 was used as passing quality control criteria for the plates.
The Z′ is defined as: 1−[3*SDPositive Control+3*SDNegative Control/Absolute(Meanpostivie Control−MeanNegative Control)] wherein “SD” is standard deviation.
The % activity measured at each of the 8 test concentrations of the test compound added either without or with a co-corrector (2 μM of 3-[(2R,4R)-4-({[1-(2,2-difluoro-1,3-benzodioxol-5-yl)cyclopropyl]carbonyl}amino)-7-methoxy-3,4-dihydro-2H-chromen-2-yl]benzoic acid) was normalized to the on-plate positive control using the following formulae: % activity(Test compound without co-corrector)=[(test compound without co-corrector response−DMSO response)/(positive control response−DMSO response)]*100 % activity(Test compound with co-corrector)=[(test compound with co-corrector response−DMSO response)/(positive control response−DMSO response)]*100
The maximum % activity achieved for the test compound either without or with a co-corrector at any tested concentration is presented in Table 1 along with the respective EC50's calculated using the following general sigmoidal curve with variable Hill slope equation (described as Model 42 in the Accelrys® Assay Explorer v3.3 software): y=(a−d)/(1+(x/c)^b)+d
General sigmoidal curve with concentration, response, top, bottom, EC50 and Hill slope. This model describes a sigmoidal curve with an adjustable baseline, a. The equation can be used to fit curves where response is either increasing or decreasing with respect to the independent variable, “x”.
“x” is a concentration of drug under test.
“a” is the maximum response, and “d” is the minimum response
“c” is the inflection point (EC50) for the curve. That is, “y” is halfway between the lower and upper asymptotes when x=c.
“b” is the slope-factor or Hill coefficient. […]

The mark [1] stands for this setting: test compound without co-corrector, HRP luminescence readout, read-out: EC50 (without co-corrector).
Setting [2] is: test compound without co-corrector, maximum at any tested concentration (up to 20 μM), normalized to on-plate positive control (2 μM co-corrector).
Setting [3] is: with co-corrector 2 μM 3-[(2R,4R)-4-({[1-(2,2-difluoro-1,3-benzodioxol-5-yl)cyclopropyl]carbonyl}amino)-7-methoxy-3,4-dihydro-2H-chromen-2-yl]benzoic acid, read-out: EC50 (with co-corrector).
Where [4] appears, read: maximum at any tested concentration (up to 20 μM), normalized to on-plate positive control (2 μM co-corrector).

Where two headings read alike, the source gives them in different places. Bounds are passed on as bounds.

T1 sequence (P13569 with tags, fused parts or gaps DEL508-508): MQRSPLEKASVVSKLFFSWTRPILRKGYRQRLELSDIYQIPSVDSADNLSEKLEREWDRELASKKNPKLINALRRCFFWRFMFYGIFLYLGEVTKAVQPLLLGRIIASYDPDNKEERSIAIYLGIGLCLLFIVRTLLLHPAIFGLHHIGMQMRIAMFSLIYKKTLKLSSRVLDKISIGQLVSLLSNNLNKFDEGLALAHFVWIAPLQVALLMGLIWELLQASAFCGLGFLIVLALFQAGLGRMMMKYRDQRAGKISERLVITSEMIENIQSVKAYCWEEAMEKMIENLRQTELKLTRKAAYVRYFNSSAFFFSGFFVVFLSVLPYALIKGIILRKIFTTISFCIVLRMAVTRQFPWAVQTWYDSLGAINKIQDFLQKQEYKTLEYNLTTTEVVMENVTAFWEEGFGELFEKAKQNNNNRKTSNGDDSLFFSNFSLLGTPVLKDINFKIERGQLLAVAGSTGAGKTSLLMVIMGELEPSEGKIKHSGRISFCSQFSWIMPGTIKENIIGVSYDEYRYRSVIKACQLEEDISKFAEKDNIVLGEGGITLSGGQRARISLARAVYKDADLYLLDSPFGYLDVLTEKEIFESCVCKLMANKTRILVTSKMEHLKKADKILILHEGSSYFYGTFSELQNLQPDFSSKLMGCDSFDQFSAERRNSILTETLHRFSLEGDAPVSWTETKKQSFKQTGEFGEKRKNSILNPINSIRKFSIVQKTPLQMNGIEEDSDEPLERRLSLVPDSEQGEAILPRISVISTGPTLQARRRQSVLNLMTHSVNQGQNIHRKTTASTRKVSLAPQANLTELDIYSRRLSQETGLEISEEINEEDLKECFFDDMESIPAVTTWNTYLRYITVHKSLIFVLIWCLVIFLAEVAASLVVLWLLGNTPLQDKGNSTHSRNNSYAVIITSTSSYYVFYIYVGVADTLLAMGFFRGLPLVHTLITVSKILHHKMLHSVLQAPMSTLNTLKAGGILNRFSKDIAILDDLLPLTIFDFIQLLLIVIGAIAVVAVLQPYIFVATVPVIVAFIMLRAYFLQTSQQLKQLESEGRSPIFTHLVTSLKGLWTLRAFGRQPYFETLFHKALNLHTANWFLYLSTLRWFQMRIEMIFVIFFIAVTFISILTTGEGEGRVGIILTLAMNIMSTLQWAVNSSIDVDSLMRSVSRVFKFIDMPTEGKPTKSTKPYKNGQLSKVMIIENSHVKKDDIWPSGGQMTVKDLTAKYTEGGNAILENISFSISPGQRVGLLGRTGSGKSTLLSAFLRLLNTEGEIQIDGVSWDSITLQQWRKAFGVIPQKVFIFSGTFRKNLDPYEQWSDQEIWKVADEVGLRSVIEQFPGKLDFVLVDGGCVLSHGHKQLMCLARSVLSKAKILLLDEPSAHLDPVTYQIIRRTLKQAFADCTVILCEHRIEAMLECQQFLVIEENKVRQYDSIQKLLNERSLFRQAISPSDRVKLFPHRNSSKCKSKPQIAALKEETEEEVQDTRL

On to “4-methoxy-N-(naphthalene-1-sulfonyl)-5-(trifluoromethyl)-2,3-dihydro-1-benzofuran-3-carboxamide and 4-methoxy-N-(naphthalene-1-sulfonyl)-7-(trifluoromethyl)-2,3-dihydro-1-benzofuran-3-carboxamide [Example 40]”, for which the EC50 reads like this: under setting [1], less than 3 µM; under setting [3], less than 3 µM. Further, the “Maximum % activity (without co-corrector)” value under setting [2] was “+++ (≥150)”. Moreover, the “Maximum % activity (with co-corrector)” value under setting [4] is “+++ (≥350)”.
Take `COc1ccc(C2CCC2)c2c1C(C(=O)NS(=O)(=O)c1cccc3nc(C)ccc13)CCO2` (racemic) [Example 75, 8-cyclobutyl-5-methoxy-N-(2-methylquinoline-5-sulfonyl)-3,4-dihydro-2H-1-benzopyran-4-carboxamide]: the EC50 was 3 to 10 µM under setting [1] and less than 3 µM under setting [3]. This compound also showed an Emax under setting [2] not below 150%. Moreover, the “Maximum % activity (with co-corrector)” value under setting [4] is “+++ (≥350)”.
Taken in the same sequence, the figures for `COc1ccc(Cl)c2c1[C@@H](C(=O)NS(=O)(=O)c1cccc3ccccc13)CO2` (single isomer, unassigned) [Example 67] were 3 to 10 µM, less than 3 µM, not below 150% and “+++ (≥350)”.
For the compound `COc1ccc(Cl)c2c1[C@H](C(=O)NS(=O)(=O)c1cccc3ccccc13)CO2` (single isomer, unassigned) [Example 68], the EC50 by setting is: under setting [1], 3 to 10 µM; under setting [3], less than 3 µM. The Emax under setting [2] was not below 150%. For the same compound, the “Maximum % activity (with co-corrector)” value under setting [4] was “+++ (≥350)”.
Consider `COc1ccc(Br)c2c1[C@@H](C(=O)NS(=O)(=O)c1cccc3ccccc13)CO2` (single isomer, unassigned) [Example 73], for which the EC50 runs as follows: under setting [1], 3 to 10 µM; under setting [3], 3 to 10 µM. Further, the Emax under setting [2] lay in the range of 50 to 150%. For the same compound, the “Maximum % activity (with co-corrector)” value under setting [4] is “++ (≥150 and <350)”.
Take `COc1ccc(Br)c2c1[C@H](C(=O)NS(=O)(=O)c1cccc3ccccc13)CO2` (single isomer, unassigned) [Example 74]: the EC50 under setting [1] is less than 3 µM and the EC50 under setting [3] is less than 3 µM. Under setting [2], the Emax is not below 150%. For the same compound, the “Maximum % activity (with co-corrector)” value under setting [4] is “+++ (≥350)”.
With `COc1ccc(C2CCC2)c2c1[C@@H](C(=O)NS(=O)(=O)c1cccc3ncccc13)CO2` (single isomer, unassigned) [Example 82], the EC50 lay in the range of 3 to 10 µM under setting [1] and 3 to 10 µM under setting [3]. Further, the Emax under setting [2] was not below 150%. Moreover, the “Maximum % activity (with co-corrector)” value under setting [4] is reported as “+++ (≥350)”.
For the compound `COc1ccc(C2CCC2)c2c1[C@H](C(=O)NS(=O)(=O)c1cccc3ncccc13)CO2` (single isomer, unassigned) [Example 83], the EC50 under setting [1] was less than 3 µM and the EC50 under setting [3] was less than 3 µM. Under setting [2], this compound had an Emax not below 150%. Also, the “Maximum % activity (with co-corrector)” value under setting [4] is recorded as “+++ (≥350)”.
`COc1ccc(C2CCC2)c2c1[C@@H](C(=O)NS(=O)(=O)c1cccc3cnn(C)c13)CO2` (single isomer, unassigned) [Example 94]: the EC50 under setting [1] is 3 to 10 µM and the EC50 under setting [3] was less than 3 µM. This compound gave an Emax under setting [2] of 50 to 150%. Moreover, the “Maximum % activity (with co-corrector)” value under setting [4] is “+++ (≥350)”.
Consider `COc1ccc(C2CCC2)c2c1[C@H](C(=O)NS(=O)(=O)c1cccc3c1CCCN3)CC(C)(C)O2` (single isomer, unassigned) [Example 97], for which the half-maximal effective concentration (EC50) runs as follows: under setting [1], less than 3 µM; under setting [3], less than 3 µM. Under setting [2], this compound came in with an Emax not below 150%. Further, the “Maximum % activity (with co-corrector)” value under setting [4] was “+++ (≥350)”.
Turning to `COc1ccc(C2CCC2)c2c1[C@@H](C(=O)NS(=O)(=O)c1cccc3c1NCCC3)CO2` (single isomer, unassigned) [Example 98], the EC50 by setting is: under setting [1], 3 to 10 µM; under setting [3], 3 to 10 µM. Moreover, the Emax under setting [2] was 50 to 150%. For the same compound, the “Maximum % activity (with co-corrector)” value under setting [4] is “+++ (≥350)”.
`COc1ccc(C2CCC2)c2c1OCC[C@H]2C(=O)NS(=O)(=O)c1cccc2ncccc12` (single isomer, unassigned) [Example 106]: the EC50 reads like this: under setting [1], less than 3 µM; under setting [3], less than 3 µM. This compound also yielded an Emax under setting [2] not below 150%. For the same compound, the “Maximum % activity (with co-corrector)” value under setting [4] is “+++ (≥350)”.
In the case of `COc1ccc(C2CCC2)c2c1OCC[C@@H]2C(=O)NS(=O)(=O)c1cccc2ncccc12` (single isomer, unassigned) [Example 107], the EC50 under setting [1] lay in the range of 3 to 10 µM and the EC50 under setting [3] was in the range of 3 to 10 µM. This compound also registered an Emax under setting [2] of less than 50%. For the same compound, the “Maximum % activity (with co-corrector)” value under setting [4] was “++ (≥150 and <350)”.
Regarding `O=C(NS(=O)(=O)c1cccc2ccccc12)C1(c2ccccc2)CCOc2ccc(Br)cc21` (stereo not drawn) [Example 1, 6-bromo-N-(naphthalene-1-sulfonyl)-4-phenyl-3,4-dihydro-2H-1-benzopyran-4-carboxamide], the EC50 under setting [1] is less than 3 µM and the EC50 under setting [3] was less than 3 µM. The Emax under setting [2] was not below 150%. Under setting [4], the “Maximum % activity (with co-corrector)” value is “+++ (≥350)”.
Turning to `CCSC[C@H]1C[C@@](C(=O)NS(=O)(=O)c2cccc3ccccc23)(c2ccccc2)c2ccccc2O1` [Example 2, (2R,4R)-2-[(ethylsulfanyl)methyl]-N-(naphthalene-1-sulfonyl)-4-phenyl-3,4-dihydro-2H-1-benzopyran-4-carboxamide], the EC50 runs as follows: under setting [1], less than 3 µM; under setting [3], less than 3 µM. Under setting [2], the Emax was 50 to 150%. Besides, under setting [4], the “Maximum % activity (with co-corrector)” value is “+++ (≥350)”.
As to `COc1ccc2c(c1)C(C(=O)NS(=O)(=O)c1cccc3ccccc13)(c1ccccc1)CC(C)(C)O2` (stereo not drawn) [Example 3, 6-methoxy-2,2-dimethyl-N-(naphthalene-1-sulfonyl)-4-phenyl-3,4-dihydro-2H-1-benzopyran-4-carboxamide], the EC50 by setting is: under setting [1], less than 3 µM; under setting [3], less than 3 µM. This compound had an Emax under setting [2] not below 150%. For the same compound, the “Maximum % activity (with co-corrector)” value under setting [4] is on record as “+++ (≥350)”.
As for `COc1ccc2c(c1)C(C(=O)NS(=O)(=O)c1cccc3ccccc13)(c1ccccc1)CCO2` (stereo not drawn) [Example 4, 6-methoxy-N-(naphthalene-1-sulfonyl)-4-phenyl-3,4-dihydro-2H-1-benzopyran-4-carboxamide], the EC50 by setting is: under setting [1], less than 3 µM; under setting [3], less than 3 µM. Also, the Emax under setting [2] lay within 50 to 150%. Further, the “Maximum % activity (with co-corrector)” value under setting [4] is “+++ (≥350)”.
As for `Cc1cc2c(c(C)c1C(=O)c1ccccc1)C(C(=O)NS(=O)(=O)c1cccc3ccccc13)CCO2` (stereo not drawn) [Example 5, 6-benzoyl-5,7-dimethyl-N-(naphthalene-1-sulfonyl)-3,4-dihydro-2H-1-benzopyran-4-carboxamide], the EC50 is less than 3 µM under setting [1] and less than 3 µM under setting [3]. This compound also came in with an Emax under setting [2] not below 150%. Besides, under setting [4], the “Maximum % activity (with co-corrector)” value is listed as “+++ (≥350)”.

The term EC50 denotes the concentration that produces a half-maximal response. As usually defined, the Emax is the greatest response seen or fitted, relative to the assay's reference.
